From patent publication US20130217664A1, “NOVEL COMPOUNDS USEFUL FOR THE TREATMENT OF DEGENERATIVE AND INFLAMMATORY DISEASES” (priority 2012, published 2013)
pIC50: −log10 of the molar value. Where two headings read alike, the source gives them in different places.

Legend:
[1] = system: pSTAT1(2)-luciferase reporter in HeLa cells triggered with human OSM; assay: JAK-STAT signalling assay; type: cell-based; conditions: read-out: JAK-STAT IC50
Method in brief: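 HeLa cells transiently co-transfected with pSTAT1(2)-luciferase and LacZ control reporter, preincubated with compound 60 min, then stimulated with human OSM (33 ng/mL final) overnight at 37 °C. Luciferase read by luminescence; percent inhibition from vehicle and no-trigger controls, EC50 from dose-response.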

human JAK2 = target: T1, human JAK2 (Homo sapiens, UniProt O60674); assay: JAK2 inhibition assay (polyGT substrate / Ulight-JAK1 peptide); type: biochemical; conditions: recombinant human JAK2 catalytic domain; polyGT or Ulight-JAK1 peptide assay
T1 construct: catalytic domain (amino acids 808-1132; catalog number PV4210); GST; purchased Invitrogen PV4210
T1 sequence (O60674 808-1132): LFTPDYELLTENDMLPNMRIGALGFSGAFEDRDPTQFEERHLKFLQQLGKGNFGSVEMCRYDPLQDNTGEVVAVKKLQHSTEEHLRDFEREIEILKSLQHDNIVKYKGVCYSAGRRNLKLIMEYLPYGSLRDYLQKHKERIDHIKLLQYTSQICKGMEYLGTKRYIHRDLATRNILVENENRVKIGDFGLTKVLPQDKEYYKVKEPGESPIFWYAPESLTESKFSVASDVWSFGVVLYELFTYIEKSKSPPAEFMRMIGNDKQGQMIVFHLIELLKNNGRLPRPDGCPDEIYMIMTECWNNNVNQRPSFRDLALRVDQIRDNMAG
Method in brief: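 Radiometric: 0.025 mU JAK2 with 2.5 μg polyGT, 1 μM ATP plus ^33P-ATP in MOPS pH 7.5 buffer, 1% DMSO, 90 min at 30° C.; filter counting. Alternative TR-FRET format with Ulight-JAK1 peptide, 60 min at room temperature, Eu-anti-phosphotyrosine detection.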

[2] = Homo sapiens, HeLa, HeLa cells, pSTAT1(2)-luciferase reporter, human OSM 33 ng/mL
[3] = HeLa cells, pSTAT1(2)-luciferase reporter, human OSM 33 ng/mL

pIC50 [1, 2]	pIC50 (human JAK2)	pIC50 [1, 3]	SMILES	pIC50 ([1]; Homo sapiens, HeLa)
< 6.00	6.30 to 7.00		CCc1cc(C#N)cc(F)c1N(C)c1cc2c(cn1)ncn2C [Compound 322, 3-Ethyl-5-fluoro-4-[methyl-(1-methyl-M-imidazo[4,5-c]pyridin-6-yl)-amino]-benzonitrile]	
6.00 to 6.30	7.00 to 11.00		CCc1cc(O)ccc1N(C)c1cc2c(cn1)ncn2C [Compound 107, 3-ethyl-4-(methyl(1-methyl-1H-imidazo[4,5-c]pyridin-6-yl)amino)phenol]	
	7.00 to 11.00	6.30 to 9.00	CCc1cc(-c2ccc(Cl)s2)ncc1N(C)c1cc2c(cn1)ncn2C [Compound 304, [6-(5-Chloro-thiophen-2-yl)-4-ethyl-pyridin-3-yl]-methyl-(1-methyl-1H-imidazo[4,5-c]pyridin-6-yl)-amine]	
	6.30 to 7.00	< 6.00	CCc1cc(C2CN(CC#N)C2)ncc1N(C)c1cc2c(cn1)ncn2C [Compound 331, (3-{4-Ethyl-5-[methyl-(1-methyl-1H-imidazo[4,5-c]pyridin-6-yl)-amino]-pyridin-2-yl}-azetidin-1-yl)-acetonitrile]	
< 6.00	6.30 to 7.00		CCc1cc(OC2CCN(S(C)(=O)=O)C2)ccc1N(C)c1cc2c(cn1)ncn2C (stereo not drawn) [Compound 110, N-(2-Ethyl-4-((1-(methylsulfonyl)pyrrolidin-3-yl)oxy)phenyl)-N,1-dimethyl-1H-imidazo[4,5-c]pyridin-6-amine]	
6.00 to 6.30	6.30 to 7.00		CCc1cc(Cn2ccnc2)ccc1N(C)c1cc2c(cn1)ncn2C [Compound 111, N-(4-((1H-imidazol-1-yl)methyl)-2-ethylphenyl)-N,1-dimethyl-1H-imidazo[4,5-c]pyridin-6-amine]	
	6.30 to 7.00	< 6.00	CCc1cc(C2CN(S(=O)(=O)C(C)C)C2)ncc1N(C)c1cc2c(cn1)ncn2C [Compound 330, {4-Ethyl-6-[1-(propane-2-sulfonyl)-azetidin-3-yl]-pyridin-3-yl}-methyl-(1-methyl-1H-imidazo[4,5-c]pyridin-6-yl)-amine]	
	6.30 to 7.00	< 6.00	COc1cc(N2CCOCC2)ncc1N(C)c1cc2c(cn1)ncn2C [Compound 313, (4-Methoxy-6-morpholin-4-yl-pyridin-3-yl)-methyl-(1-methyl-1H-imidazo[4,5-c]pyridine-6-yl)-amine]	
	6.30 to 7.00	< 6.00	CCc1cc(-c2ccc(CNC(=O)OC(C)(C)C)s2)ncc1N(C)c1cc2c(cn1)ncn2C [Compound 302]	
	6.30 to 7.00	< 6.00	CCc1ccccc1N(CC(F)F)c1cc2c(cn1)ncn2C [Compound 463, N-(2,2-difluoroethyl)-N-(2-ethylphenyl)-1-methyl-1H-imidazo[4,5-c]pyridin-6-amine]	
6.30 to 9.00	7.00 to 11.00		CCc1cc(-c2ccc(C)s2)ncc1N(C)c1cc2c(cn1)ncn2C [Compound 311, [4-Ethyl-6-(5-methyl-thiophen-2-yl)-pyridin-3-yl]-methyl-(1-methyl-1H-imidazo[4,5-c]pyridin-6-yl)-amine]	
< 6.00	< 6.00		CCc1ccc(C(=O)NC(C)(C)C)cc1N(C)c1cc2c(cn1)ncn2C [Compound 123, N-tert-butyl-4-ethyl-3-(methyl(1-methyl-1H-imidazo[4,5-c]pyridin-6-yl)amino)benzamide]	
< 6.00	< 6.00		CCc1cc(C(=O)NCCN(C)C)ccc1N(C)c1cc2c(cn1)ncn2C [Compound 119, N-(2-(dimethylamino)ethyl)-3-ethyl-4-(methyl(1-methyl-1H-imidazo[4,5-c]pyridin-6-yl)amino)benzamide]	

The remaining lines, values behind:

SMILES	pIC50 [1, 2]	pIC50 (human JAK2)	pIC50 [1, 3]	pIC50 ([1]; Homo sapiens, HeLa)
Cc1cc(C#N)ccc1N(C)c1cc2c(cn1)ncn2C [Compound 31, 3-Methyl-4-(methyl(1-methyl-1H-imidazo[4,5-c]pyridin-6-yl)amino)benzonitrile]	< 6.00	< 6.00		
CCc1cc(-c2cccnc2)ccc1N(C)c1cc2c(cn1)ncn2C [Compound 94, N-(2-ethyl-4-(pyridin-3-yl)phenyl)-N,1-dimethyl-1H-imidazo[4,5-c]pyridin-6-amine]	6.30 to 9.00	6.30 to 7.00		
CNC(=O)c1ccc(N(C)c2cc3c(cn2)ncn3C)c(C)c1 [Compound 30, N,3-Dimethyl-4-(methyl(1-methyl-1H-imidazo[4,5-c]pyridin-6-yl)amino)-benzamide]	< 6.00	< 6.00		
Cc1ccc(OCc2cccnc2)cc1N(C)c1cc2c(cn1)ncn2C [Compound 61, N,1-dimethyl-N-(2-methyl-5-(pyridin-3-ylmethoxy)phenyl)-1H-imidazo[4,5-c]pyridin-6-amine]		< 6.00	< 6.00	
CCc1cc(COC)ccc1N(C)c1cc2c(cn1)ncn2C [Compound 105, N-(2-Ethyl-4-(methoxymethyl)phenyl)-N,1-dimethyl-1H-imidazo[4,5-c]pyridin-6-amine]	< 6.00	6.30 to 7.00		
COC(=O)c1ccc(N(C)c2cc3c(cn2)ncn3C)c(C)c1 [Compound 27, Methyl 3-methyl-4-(methyl(1-methyl-1H-imidazo[4,5-c]pyridin-6-yl)amino)benzoate]	< 6.00	< 6.00		
COc1ccc(COc2ccc(N(C)c3cc4c(cn3)ncn4C)c(C)c2)cc1 [Compound 33, N-(4-(4-Methoxybenzyloxy)-2-methylphenyl)-N,1-dimethyl-1H-imidazo[4,5-c]pyridin-6-amine]		< 6.00	< 6.00	
Cc1ccc(Oc2ccc(C#N)nc2)cc1N(C)c1cc2c(cn1)ncn2C [Compound 91, 5-(4-methyl-3-(methyl(1-methyl-1H-imidazo[4,5-c]pyridin-6-yl)amino)phenoxy)picolino-nitrile]		< 6.00	< 6.00	
CCc1cc(C(=O)NCc2ccccc2)ccc1N(C)c1cc2c(cn1)ncn2C [Compound 98, N-benzyl-3-ethyl-4-(methyl(1-methyl-1H-imidazo[4,5-c]pyridin-6-yl)amino)benzamide]	< 6.00	6.00 to 6.30		
CCc1ccc(C#N)cc1N(C)c1cc2c(cn1)ncn2C [Compound 83, 4-ethyl-3-(methyl(1-methyl-1H-imidazo[4,5-c]pyridin-6-yl)amino)benzonitrile]	< 6.00	6.30 to 7.00		
Cc1cc(C(N)=O)ccc1N(C)c1cc2c(cn1)ncn2C [Compound 32, 3-Methyl-4-(methyl(1-methyl-1H-imidazo[4,5-c]pyridin-6-yl)amino)benzamide]	< 6.00	< 6.00		
CCc1ccccc1N(CC)c1cc2c(cn1)ncn2C [Compound 34, N-Ethyl-N-(2-ethylphenyl)-1-methyl-1H-imidazo[4,5-c]pyridin-6-amine]		6.00 to 6.30		< 6.00
Cc1cc(OCC#N)ccc1N(C)c1cc2c(cn1)ncn2C [Compound 47, 2-(3-methyl-4-(methyl(1-methyl-1H-imidazo[4,5-c]pyridin-6-yl)amino)phenoxy)acetoni-trile]	< 6.00	6.30 to 7.00		
COc1ccc(COc2ccc(C)c(N(C)c3cc4c(cn3)ncn4C)c2)cc1 [Compound 43, N-(5-(4-methoxybenzyloxy)-2-methylphenyl)-N,1-dimethyl-1H-imidazo[4,5-c]pyridin-6-amine]		< 6.00	< 6.00	
CN(c1cc2c(cn1)ncn2C)c1ccccc1OC(F)F [Compound 39, N-(2-(difluoromethoxy)phenyl)-N,1-dimethyl-1H-imidazo[4,5-c]pyridin-6-amine]	< 6.00	6.00 to 6.30		
CN(c1ccc(O)cc1)c1cc2c(cn1)ncn2C [Compound 17, 4-(methyl(1-methyl-1H-imidazo[4,5-c]pyridin-6-yl)amino)phenol]	< 6.00	6.00 to 6.30		
CN(c1ccc(CC#N)cc1)c1cc2c(cn1)ncn2C [Compound 26, 2-(4-(Methyl(1-methyl-1H-imidazo[4,5-c]pyridin-6-yl)amino)phenyl)acetonitrile]	< 6.00	6.30 to 7.00		
Cc1cc(OCCCC#N)ccc1N(C)c1cc2c(cn1)ncn2C [Compound 48, 4-(3-methyl-4-(methyl(1-methyl-1H-imidazo[4,5-c]pyridin-6-yl)amino)phenoxy)butane nitrile]	< 6.00	< 6.00		
Cc1ccc(OCc2ccc(Cl)cc2)cc1N(C)c1cc2c(cn1)ncn2C [Compound 62, N-(5-(4-chlorobenzyloxy)-2-methylphenyl)-N,1-dimethyl-1H-imidazo[4,5-c]pyridin-6-amine]		< 6.00	< 6.00	
CCc1ccccc1N(CC1CC1)c1cc2c(cn1)ncn2C [Compound 35, N-(cyclopropylmethyl)-N-(2-ethylphenyl)-1-methyl-1H-imidazo[4,5-c]pyridin-6-amine]	< 6.00	< 6.00		
Cc1cc(-c2cn[nH]c2)ccc1N(C)c1cc2c(cn1)ncn2C [Compound 71, N,1-Dimethyl-N-(2-methyl-4-(1H-pyrazol-4-yl)phenyl)-1H-imidazo[4,5-c]pyridin-6-amine]		6.30 to 7.00	< 6.00	
Cc1cc(-c2cnn(C)c2)ccc1N(C)c1cc2c(cn1)ncn2C [Compound 73, N,1-dimethyl-N-(2-methyl-4-(1-methyl-1H-pyrazol-4-yl)phenyl)-1H-imidazo[4,5-c]pyridin-6-amine]		6.00 to 6.30	< 6.00	
CCc1cc(F)ccc1N(C)c1cc2c(cn1)ncn2C [Compound 28, N-(2-Ethyl-4-fluorophenyl)-N,1-dimethyl-1H-imidazo[4,5-c]pyridin-6-amine]	< 6.00	6.00 to 6.30		
